Legend:
FXR = target: T1, FXR (Homo sapiens, UniProt Q96RI1); experiment: FXR antagonist screening by TR-FRET (LanthaScreen TR-FRET FXR co-activation assay kit); assay type: biochemical; details: TR-FRET with CDCA, geometric means of at least two independent runs
T1 construct: 5 μL of 20 nM FXR-LBD Complete Coregulator buffer G; purchased ThermoFisher PV4833
T1 sequence (Q96RI1 262-486 limits assumed): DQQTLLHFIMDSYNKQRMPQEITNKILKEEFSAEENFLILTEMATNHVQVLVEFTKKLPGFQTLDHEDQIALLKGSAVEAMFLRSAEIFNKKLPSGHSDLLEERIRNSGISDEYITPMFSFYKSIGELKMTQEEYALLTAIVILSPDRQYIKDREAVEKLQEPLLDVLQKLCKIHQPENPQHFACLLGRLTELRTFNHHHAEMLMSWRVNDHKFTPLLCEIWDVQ
Method in brief: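 FXR-LBD (20 nM working solution) mixed with compound, CDCA (200 μM working solution) as agonist, Fluorescein-SRC2-2 and Tb-anti-GST antibody in Coregulator buffer G; 10 h at room temperature. Coactivator recruitment read by TR-FRET, triplicate wells.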

[1] = Table 1.1, FXR antagonistic activity
[2] = Table 1.2, FXR antagonistic activity

Compound	IC50 (FXR; [1])	melting point	IC50 (FXR; [2])
Cc1c(C(=O)O)oc2ccc(S(=O)(=O)N(CCc3ccccc3)Cc3ccccc3F)cc12 [Example F27-S14, 3-methyl-5-(N-(2-fluorobenzyl)-N-phenethylsulfamoyl)benzofuran-2-carboxylic acid]	0.1 to 10 µM	> 380 °C (dec.)	–
Cc1c(C(=O)O)oc2ccc(S(=O)(=O)N(CCc3ccccc3)Cc3ccccc3Cl)cc12 [Example F27-S15, 3-methyl-5-(N-(2-chlorobenzyl)-N-phenethylsulfamoyl)benzofuran-2-carboxylic acid]	10 to 50 µM	156 to 157 °C	–
Cc1c(C(=O)O)oc2ccc(S(=O)(=O)N(CCc3ccccc3)Cc3ccccc3Br)cc12 [Example F27-S16, 3-methyl-5-(N-(2-bromobenzyl)-N-phenethylsulfamoyl)benzofuran-2-carboxylic acid]	10 to 50 µM	170 to 171 °C	–
Cc1ccccc1CN(CCc1ccccc1)S(=O)(=O)c1ccc2oc(C(=O)O)c(C)c2c1 [Example F27-S17, 3-methyl-5-(N-(2-methylbenzyl)-N-phenethylsulfamoyl)benzofuran-2-carboxylic acid]	10 to 50 µM	199 to 200 °C	–
Cc1c(C(=O)O)oc2ccc(S(=O)(=O)N(CCc3ccccc3)Cc3ccccc3C(F)(F)F)cc12 [Example F27-S18, 3-methyl-5-(N-(2-trifluoromethylbenzyl)-N-phenethylsulfamoyl)benzofuran-2-carboxylic acid]	10 to 50 µM	138 to 139 °C	–
Cc1c(C(=O)O)oc2ccc(S(=O)(=O)N(CCc3ccccc3)Cc3ccccc3[N+](=O)[O-])cc12 [Example F27-S19, 3-methyl-5-(N-(2-nitrobenzyl)-N-phenethylsulfamoyl)benzofuran-2-carboxylic acid]	10 to 50 µM	180 to 181 °C	–
Cc1c(C(=O)O)oc2ccc(S(=O)(=O)N(CCc3ccccc3)Cc3cccc(F)c3)cc12 [Example F27-S20, 3-methyl-5-(N-(3-fluorobenzyl)-N-phenethylsulfamoyl)benzofuran-2-carboxylic acid]	10 to 50 µM	> 380 °C (dec.)	–
Cc1c(C(=O)O)oc2ccc(S(=O)(=O)N(CCc3ccccc3)Cc3cccc(Cl)c3)cc12 [Example F27-S21, 3-methyl-5-(N-(3-chlorobenzyl)-N-phenethylsulfamoyl)benzofuran-2-carboxylic acid]	10 to 50 µM	> 380 °C (dec.)	–
Cc1c(C(=O)O)oc2ccc(S(=O)(=O)N(CCc3ccccc3)Cc3cccc(Br)c3)cc12 [Example F27-S22, 3-methyl-5-(N-(3-bromobenzyl)-N-phenethylsulfamoyl)benzofuran-2-carboxylic acid]	10 to 50 µM	> 380 °C (dec.)	–
Cc1cccc(CN(CCc2ccccc2)S(=O)(=O)c2ccc3oc(C(=O)O)c(C)c3c2)c1 [Example F27-S23, 3-methyl-5-(N-(3-methylbenzyl)-N-phenethylsulfamoyl)benzofuran-2-carboxylic acid]	10 to 50 µM	> 380 °C (dec.)	–
Cc1c(C(=O)O)oc2ccc(S(=O)(=O)N(CCc3ccccc3)Cc3cccc(C(F)(F)F)c3)cc12 [Example F27-S24, 3-methyl-5-(N-(3-trifluoromethylbenzyl)-N-phenethylsulfamoyl)benzofuran-2-carboxylic acid]	50 to 100 µM	188 to 189 °C	–
Cc1c(C(=O)O)oc2ccc(S(=O)(=O)N(CCc3ccccc3)Cc3cccc([N+](=O)[O-])c3)cc12 [Example F27-S25, 3-methyl-5-(N-(3-nitrobenzyl)-N-phenethylsulfamoyl)benzofuran-2-carboxylic acid]	10 to 50 µM	> 380 °C (dec.)	–
Cc1c(C(=O)O)oc2ccc(S(=O)(=O)N(CCc3ccccc3)Cc3cccc(-c4ccccc4)c3)cc12 [Example F27-S26, 3-methyl-5-(N-([1,1′-biphenyl]-3-ylmethyl)-N-phenethylsulfamoyl)benzofuran-2-carboxylic acid]	10 to 50 µM	> 380 °C (dec.)	–
Cc1c(C(=O)O)oc2ccc(S(=O)(=O)N(CCc3ccccc3)Cc3cccc(Oc4ccccc4)c3)cc12 [Example F27-S27, 3-methyl-5-(N-(3-phenoxybenzyl)-N-phenethylsulfamoyl)benzofuran-2-carboxylic acid]	10 to 50 µM	> 183 °C	–
Cc1c(C(=O)O)oc2ccc(S(=O)(=O)N(CCc3ccccc3)Cc3ccc(F)cc3)cc12 [Example F27-S28, 3-methyl-5-(N-(4-fluorobenzyl)-N-phenethylsulfamoyl)benzofuran-2-carboxylic acid]	10 to 50 µM	188 to 189 °C	–
Cc1c(C(=O)O)oc2ccc(S(=O)(=O)N(CCc3ccccc3)Cc3ccc(Cl)cc3)cc12 [Example F27-S29, 3-methyl-5-(N-(4-chlorobenzyl)-N-phenethylsulfamoyl)benzofuran-2-carboxylic acid]	10 to 50 µM	172 to 173 °C	–
Cc1ccc(CN(CCc2ccccc2)S(=O)(=O)c2ccc3oc(C(=O)O)c(C)c3c2)cc1 [Example F27-S31, 3-methyl-5-(N-(4-methylbenzyl)-N-phenethylsulfamoyl)benzofuran-2-carboxylic acid]	10 to 50 µM	> 380 °C (dec.)	–
Cc1c(C(=O)O)oc2ccc(S(=O)(=O)N(CCc3ccccc3)Cc3ccc(C(F)(F)F)cc3)cc12 [Example F27-S32, 3-methyl-5-(N-(4-(trifluoromethyl)benzyl)-N-phenethylsulfamoyl)benzofuran-2-carboxylic acid]	10 to 50 µM	> 192 °C	–
CCOC(=O)c1sc2ccc(S(=O)(=O)N(CCc3ccccc3Cl)c3ccccc3N3CCN(C(=O)c4sccc4Br)CC3)cc2c1C [Example M10-172, Ethyl 5-(N-(2-(4-(3-bromothiophene-2-carbonyl)piperazin-1-yl)phenyl)-N-(2-chlorophenylethyl)sulfamoyl)-3-methylbenzothiophene-2-carboxylate]	–	–	50 to 100 µM
CCOC(=O)c1sc2ccc(S(=O)(=O)N(CCc3ccccc3OC)c3ccccc3N3CCN(C(=O)c4sccc4Br)CC3)cc2c1C [Example M10-173, Ethyl 5-(N-(2-(4-(3-bromothiophene-2-carbonyl)piperazin-1-yl)phenyl)-N-(2-methoxyphenethyl)sulfamoyl)-3-methylbenzothiophene-2-carboxylate]	–	–	50 to 100 µM
CCOC(=O)c1sc2ccc(S(=O)(=O)N(CCc3ccccc3[N+](=O)[O-])c3ccccc3N3CCN(C(=O)c4sccc4Br)CC3)cc2c1C [Example M10-174]	–	–	50 to 100 µM
CCOC(=O)c1sc2ccc(S(=O)(=O)N(CCCc3ccccc3)c3ccccc3N3CCN(C(=O)c4sccc4Br)CC3)cc2c1C [Example M10-175, ethyl 5-(N-(2-(4-(3-bromothiophene-2-carbonyl)piperazin-1-yl)phenyl)-N-(3-phenylpropyl)sulfamoyl)-3-methylbenzothiophene-2-carboxylate]	–	–	50 to 100 µM
CCOC(=O)c1sc2ccc(S(=O)(=O)Nc3ccccc3N3CCN(C(=O)c4sccc4Br)CC3)cc2c1C [Example M10-176, Ethyl 5-(N-(2-(4-(3-bromothiophene-2-carbonyl)piperazin-1-yl)phenyl)sulfamoyl)-3-toluothiophene-2-carboxylate]	–	–	50 to 100 µM
CCOC(=O)c1sc2ccc(S(=O)(=O)N(CCc3ccc(OC)cc3)c3ccccc3N3CCN(C(=O)c4sccc4Br)CC3)cc2c1C [Example M10-177, Ethyl 5-(N-(2-(4-(3-bromothiophene-2-formyl)piperazin-1-yl)phenyl)-N-(4-methoxyphenethyl)sulfamoyl)3-methylbenzothiophene-2-carboxylate]	–	–	50 to 100 µM
CCOC(=O)c1c(C)c2cc(S(=O)(=O)N(CCc3ccccc3)c3ccccc3N3CCN(C(=O)c4sccc4Br)CC3)ccc2n1C [Example M10-179, Ethyl 5-(N-(2-(4-(3-bromothiophene-2-carbonyl)piperazin-1-yl)phenyl)-N-phenethylsulfamoyl)-1,3-dimethyl-1H-indole-2-carboxylate]	–	–	50 to 100 µM
CCOC(=O)c1sc2ccc(S(=O)(=O)N(CCC3CCCCC3)c3ccccc3N3CCN(C(=O)c4sccc4Br)CC3)cc2c1C [Example M10-180, Ethyl 5-(N-(2-(4-(3-bromothiophene-2-carbonyl)piperazin-1-yl)phenyl)-N-(2-cyclohexylethyl)sulfamoyl)-3-methylbenzothiophene-2-carboxylate]	–	–	50 to 100 µM
CCOC(=O)c1sc2ccc(S(=O)(=O)N(Cc3ccccc3)c3ccccc3N3CCN(C(=O)c4sccc4Br)CC3)cc2c1C [Example M10-181, Ethyl 5-(N-benzyl-N-(2-(4-(3-bromothiophene-2-carbonyl)piperazin-1-yl)phenyl)sulfamoyl)-3-methylbenzothiophene-2-carboxylate]	–	–	50 to 100 µM
CCOC(=O)c1sc2ccc(S(=O)(=O)N(C)c3ccccc3N3CCN(C(=O)c4sccc4Br)CC3)cc2c1C [Example M10-182, Ethyl 5-(N-(2-(4-(3-bromothiophene-2-carbonyl)piperazin-1-yl)phenyl)-N-methylsulfamoyl)-3-methylbenzothiophene-2-carboxylate]	–	–	50 to 100 µM
CCOC(=O)c1sc2ccc(S(=O)(=O)N(CCc3cccs3)c3ccccc3N3CCN(C(=O)c4sccc4Br)CC3)cc2c1C [Example M10-183, Ethyl 5-(N-(2-(4-(3-bromothiophene-2-carbonyl)piperazin-1-yl)phenyl)-N-(2-(thiophen-2-yl)ethyl)sulfamoyl)-3-methylbenzothiophene-2-carboxylate]	–	–	50 to 100 µM

— patent US20240239775A1, “FXR REGULATOR, PREPARATION METHOD THEREFOR, PHARMACEUTICAL COMPOSITION THEREOF AND USE THEREOF” (QINGDAO RUIJI MEDICAL TECHNOLOGY CO., LTD., priority 2021, published 2024)
